Structures can show the parent of a compound that is named as a salt.
Key:
patients with MPS III = conditions: cited from earlier work
[1] = test system: HeLa tumor epithelial cells; assay: HeLa cell proliferation assay; type: cell-based; conditions: after 48 hours
Procedure: Furthermore, treatment with the L-deoxyminosugars L-DNJ, L-NBDNJ, L-AMPDNM and L-MONDNJ caused a decrease of the number of HeLa cells after 48 hours as shown by the cell proliferation assay reported in Table 6.

[2] = test system: fibroblasts of patients affected by Sanfilippo A (MPS IIIA); assay: HS and Lamp1 immunofluorescence in Sanfilippo A patient fibroblasts; type: cell-based, human; conditions: 20 μM, 48 hours; for Effect on HS and lysosome (Lamp1) accumulation, in words: Sanfilippo A (MPS IIIA) patient fibroblasts
From the text: (§1) To verify whether the selected iminosugars could exert the same effects also on the fibroblasts of patients affected by Sanfilippo disease, human adult dermal fibroblasts HDFa (purchased from Sigma-Aldrich) were used as control, and fibroblasts of patients affected by Sanfilippo A and B (MPS IIIA and IIIB) were used as disease model.
(§2) The human cell lines, fibroblasts, from patients with MPS (Sanfilippo disease) used in the examples were obtained from the G. Gaslini Institute of Genoa, “Cell Line and DNA Biobank from Patients Affected by Genetic Diseases”-Telethon Genetic Biobank Network—Telethon research service. These cells are classified with identification codes and by type of disease without allowing patient identification. Cells were collected from the patients, at the Gaslini Institute, with informed consent to the collection extended to conservation and its possible use, for diagnosis and/or research purposes according to current legislation as required by the guidelines followed by the Telethon biobanks. The Network operates abiding by the Italian Privacy and Data Protection Laws in force, including: Italian Data Protection Authority, Personal Data Protection Code, Legislative Decree no. 196, 30 Jun. 2003, published in Official Gazette No. 174 of the Italian Republic, 29 Jul. 2003; Italian Data Protection Authority, General Authorization for the processing of genetic data, 24 Jun. 2011, published in Official Gazette No. 159 of Italian Republic, 11 Jul. 2011.
(§3) Cells were cultured in the presence of the selected L-iminosugars at a dosage of 20 μM and after 48 hours were treated for HS and Lamp1 immunofluorescence. Treatment with L-iminosugars had no effect on control HDFa (Table 3).
(§4) Cells were grown in the presence of the iminosugars D-DNJ, D-NBDNJ, D-AMPDNM and D-MONDNJ at the dosage of 20 μM and after 48 hours were treated for HS and Lamp1 immunofluorescence. Treatment with D-iminosugars had no effect on HDFa and fibroblasts of patients affected by Sanfilippo A and B (MPS IIIA and MPS IIIB) both on HS and lysosome accumulation (Table 4).

[3] = test system: fibroblasts of patients affected by Sanfilippo B (MPS IIIB); assay: HS and Lamp1 immunofluorescence in Sanfilippo B patient fibroblasts; type: cell-based, human; conditions: 20 μM, 48 hours; for Effect on HS and lysosome (Lamp1) accumulation, in words: Sanfilippo B (MPS IIIB) patient fibroblasts
From the text: as §1, §2, §3, §4

[4] = test system: human adult dermal fibroblasts HDFa; assay: HS and Lamp1 immunofluorescence in control fibroblasts HDFa; type: cell-based; conditions: 20 μM, 48 hours
Procedure: as §1, §3, §4

[5] = test system: NAGLU-silenced clone (cl5) of human neuroblastoma cell line SK-NBE; assay: Immunofluorescence against beta-amyloid peptide 1-42 in NAGLU-silenced SK-NBE clone; type: cell-based; conditions: 20 μM, 48 hours
Procedure: The clone (c15) stably silenced for NAGLU, the causative gene of MPS IIIB, is able to mimic the features of neurodegenerative diseases as it accumulates beta-amyloid fibers in the cytoplasm. In fact, Sanfilippo Syndrome is also defined as “childhood Alzheimer”.
The diseased clone (c15) was grown in the presence of L-DNJ, L-NBDNJ, L-AMPDNM and L-MONDNJ and the corresponding enantiomers D-DNJ, D-NBDNJ, D-AMPDNM and D-MONDNJ at a dosage of 20 μM and after 48 hours were processed by immunofluorescence against the beta-amyloid peptide 1-42. […] On contrary, treatment with the corresponding D-enantiomers has no effect on the reduction of the accumulation of amyloid fibers compared to the untreated clone (mock) (Table 7).

[6] = test system: NAGLU-silenced clone (cl5) of human neuroblastoma cell line SK-NBE; assay: Lamp1 immunofluorescence (lysosomal accumulation) in NAGLU-silenced SK-NBE clone, Sanfilippo B model; type: cell-based; conditions: 48 hours; for Cells positive for Lamp1 (%) / Relative Lamp1 fluorescence intensity: cl5 clone, 20 μM; for Effect on lysosomal enlargement and accumulation (lysosomal phenotype), in words: clone 5, 20 μM
From the text: (§5) To study the effects of the compounds on the lysosomal dysfunctions in a neuronal model of Sanfilippo B disease (MPS IIIB), we recently generated stable clones of the human neuroblastoma cell line SK-NBE silenced for the NAGLU gene causative of MPS IIIB [De Pasquale V, et al. (2021). Biochim Biophys Acta Mol Cell Res. 1868, 119113.]. Mimicking the features of Sanfilippo B disease, silencing of NAGLU causes accumulation of heparan sulfate and accumulation of lysosomes in the cytoplasm of stable SK-NBE clones compared to the control (WT) clone.
(§6) Therefore, NAGLU-silenced clone (c15) and control clone (WT) were selected to test the effect of L-deoxyminosugars (L-DNJ, L-NBDNJ, L-NNDNJ, L-HPDNJ, L-NPDNJ, L-AMPDNM and L-MONDNJ) in the hydrochloride form on the lysosomal phenotype of our cell model of Sanfilippo B (MPS IIIB).
(§7) Clone 5 was cultured in the presence of 20 μM of each L-deoxyminosugar under normal growth conditions and after 48 hours the lysosomal accumulation was evaluated with immunofluorescence technique by using a specific antibody against Lamp1 (lysosomal marker). […] Furthermore, upon treatment with the active L-deoxyminosugar the lysosomes are no longer concentrated in the perinuclear region of the cells, as occurs in several lysosomal diseases, but they are physiologically distributed throughout the cytoplasm.

[7] = test system: HeLa tumor epithelial cells; assay: HS immunostaining in HeLa cells; type: cell-based; conditions: 48 hours
Procedure: To test whether treatment with the selected L-deoxyminosugars (L-DNJ, L-NBDNJ, L-AMPDNM and L-MONDNJ) could interfere with HS synthesis we selected a cell line not mutated for NAGLU and highly decorated by heparan sulfate on the cell membrane. For this purpose, HeLa tumor epithelial cells (purchased from ATCC) were cultured for 48 hours in the presence of the selected L-iminosugars and the amount of HS was evaluated by immunostaining.

[8] = test system: control clone (WT) of human neuroblastoma cell line SK-NBE; assay: Lamp1 immunofluorescence in control (WT) SK-NBE clone; type: cell-based; conditions: 20 μM, 48 hours
From the text: as §5, §6, §7

[9] = test system: NAGLU-silenced clone (cl5) of human neuroblastoma cell line SK-NBE; assay: Heparan sulfate (HS) immunofluorescence in NAGLU-silenced SK-NBE clone, Sanfilippo B model; type: cell-based; conditions: 48 hours; for Cells positive for HS (%) / Relative HS fluorescence intensity: cl5 clone, 20 μM; for Effect on HS staining / HS accumulation, in words: clone 5, 20 μM
From the text: as §5
Clone 5 was grown in the presence of 20 μM of each L-iminosugar under normal growth conditions and after 48 hours the accumulation of heparan sulfate (HS) was evaluated by immunofluorescence staining for HS.

[10] = test system: control clone (WT) of human neuroblastoma cell line SK-NBE; assay: Heparan sulfate (HS) immunofluorescence in control (WT) SK-NBE clone; type: cell-based; conditions: 20 μM, 48 hours

For CCCCN1C[C@H](O)[C@@H](O)[C@H](O)[C@H]1CO [D-NBDNJ•HCl], the “Clinical efficacy in MPS III patients, in words” value (patients with MPS III) is given as “no beneficial effects”, the Cell number [1] is given as 4.2 · 10^5 and the “Cells positive for HS (%)” value ([2]; MPS-IIIA fibroblasts) is given as 99.7%. For the same compound, the “Cells positive for Lamp1 (%)” value ([2]; MPS-IIIA fibroblasts) was 94.7%, the “Cells positive for HS (%)” value ([3]; MPS-IIIB fibroblasts) was 95.2% and the “Cells positive for Lamp1 (%)” value ([3]; MPS-IIIB fibroblasts) was 93.8%. The “Cells positive for HS (%)” value [4] was 4.8%, the “Cells positive for Lamp1 (%)” value [4] was 5.0% and the “Relative amyloid fluorescence intensity” value [5] was 0.98.
In the case of OC[C@@H]1NC[C@@H](O)[C@H](O)[C@H]1O [L-DNJ•HCl], the “Cells positive for Lamp1 (%)” value [6] is reported as 25%, the “Relative Lamp1 fluorescence intensity” value [6] is reported as 0.95 and the “Effect on lysosomal enlargement and accumulation (lysosomal phenotype), in words” value (“Effect … (lysosomal phenotype), in words” below) [6] is reported as “dramatic reduction”. For the same compound, the “Effect on HS accumulation on the HeLa cell membrane, in words” value (“Effect on HS accumulation” below) [7] was “strong reduction”, the “Relative HS fluorescence intensity” value [7] was 0.24 and the “Cells positive for Lamp1 (%)” value [8] was 2.8%. The “Relative Lamp1 fluorescence intensity” value [8] was 1.00, the Cell number [1] was 2.9 · 10^5 and the “Effect on the number of HeLa cells, in words” value (“Effect on the number” for short) [1] was “decrease”. The “Cells positive for HS (%)” value [9] was 5.1%, the “Relative HS fluorescence intensity” value [9] was 1.20 and the “Effect on HS staining / HS accumulation, in words” value [9] was “dramatic reduction”. For the same compound, the “Relative fluorescence intensity compared to HDFa, HS” value (“Relative fluorescence intensity … HS” for short) ([2]; MPS-IIIA fibroblasts) was 1.0, the “Relative fluorescence intensity compared to HDFa, Lamp1” value ([2]; MPS-IIIA fibroblasts) was 1.8 and the “Effect on HS and lysosome (Lamp1) accumulation, in words” value (shortened to “Effect on HS and lysosome”) [2] was “strong reduction”. For the same compound, the “Cells positive for HS (%)” value [10] was 2.6%, the “Relative HS fluorescence intensity” value [10] was 0.94 and the “Relative fluorescence intensity … HS” value ([3]; MPS-IIIB fibroblasts) was 1.0. For the same compound, the “Relative fluorescence intensity compared to HDFa, Lamp1” value ([3]; MPS-IIIB fibroblasts) was 1.0, the “Effect on HS and lysosome” value [3] was “strong reduction” and the “Relative fluorescence intensity … HS” value [4] was 1.0. For the same compound, the “Relative fluorescence intensity compared to HDFa, Lamp1” value [4] was 1.0 and the “Relative amyloid fluorescence intensity” value [5] was 0.01.
For COCCCCCCCCCN1C[C@@H](O)[C@H](O)[C@@H](O)[C@@H]1CO [L-MONDNJ•HCl, N-methoxynonyl L-DNJ], the “Cells positive for Lamp1 (%)” value [6] was 21%, the “Relative Lamp1 fluorescence intensity” value [6] was 1.00 and the “Effect … (lysosomal phenotype), in words” value [6] was “dramatic reduction”. For the same compound, the “Effect on HS accumulation” value [7] was “strong reduction”, the “Relative HS fluorescence intensity” value [7] was 0.11 and the “Cells positive for Lamp1 (%)” value [8] was 2.4%. The “Relative Lamp1 fluorescence intensity” value [8] was 1.05, the Cell number [1] was 3.1 · 10^5 and the “Effect on the number” value [1] was “decrease”. For the same compound, the “Cells positive for HS (%)” value [9] was 4.9%, the “Relative HS fluorescence intensity” value [9] was 1.15 and the “Effect on HS staining / HS accumulation, in words” value [9] was “dramatic reduction”. The “Relative fluorescence intensity … HS” value ([2]; MPS-IIIA fibroblasts) was 1.8, the “Relative fluorescence intensity compared to HDFa, Lamp1” value ([2]; MPS-IIIA fibroblasts) was 2.2 and the “Effect on HS and lysosome” value [2] was “strong reduction”. For the same compound, the “Cells positive for HS (%)” value [10] was 2.1%, the “Relative HS fluorescence intensity” value [10] was 0.97 and the “Relative fluorescence intensity … HS” value ([3]; MPS-IIIB fibroblasts) was 1.7. For the same compound, the “Relative fluorescence intensity compared to HDFa, Lamp1” value ([3]; MPS-IIIB fibroblasts) was 1.3, the “Effect on HS and lysosome” value [3] was “strong reduction” and the “Relative fluorescence intensity … HS” value [4] was 1.0. The “Relative fluorescence intensity compared to HDFa, Lamp1” value [4] was 1.0 and the “Relative amyloid fluorescence intensity” value [5] was 0.01.
With CCCCN1C[C@@H](O)[C@H](O)[C@@H](O)[C@@H]1CO [L-NBDNJ•HCl, N-butyl-L-deoxynojirimycin] the “Cells positive for Lamp1 (%)” value [6] was 20%, the “Relative Lamp1 fluorescence intensity” value [6] was 0.97 and the “Effect … (lysosomal phenotype), in words” value [6] was “dramatic reduction”. The “Effect on HS accumulation” value [7] was “strong reduction”, the “Relative HS fluorescence intensity” value [7] was 0.26 and the “Cells positive for Lamp1 (%)” value [8] was 2.6%. The “Relative Lamp1 fluorescence intensity” value [8] was 1.07, the Cell number [1] was 3.6 · 10^5 and the “Effect on the number” value [1] was “decrease”. For the same compound, the “Cells positive for HS (%)” value [9] was 7.4%, the “Relative HS fluorescence intensity” value [9] was 1.13 and the “Effect on HS staining / HS accumulation, in words” value [9] was “dramatic reduction”. The “Relative fluorescence intensity … HS” value ([2]; MPS-IIIA fibroblasts) was 1.7, the “Relative fluorescence intensity compared to HDFa, Lamp1” value ([2]; MPS-IIIA fibroblasts) was 1.9 and the “Effect on HS and lysosome” value [2] was “strong reduction”. The “Cells positive for HS (%)” value [10] was 2.5%, the “Relative HS fluorescence intensity” value [10] was 0.96 and the “Relative fluorescence intensity … HS” value ([3]; MPS-IIIB fibroblasts) was 1.5. For the same compound, the “Relative fluorescence intensity compared to HDFa, Lamp1” value ([3]; MPS-IIIB fibroblasts) was 1.0, the “Effect on HS and lysosome” value [3] was “strong reduction” and the “Relative fluorescence intensity … HS” value [4] was 1.0. The “Relative fluorescence intensity compared to HDFa, Lamp1” value [4] was 1.0 and the “Relative amyloid fluorescence intensity” value [5] was 0.01.
In the case of O=c1c(-c2ccc(O)cc2)coc2cc(O)cc(O)c12 [genistein], the “Clinical efficacy in MPS III patients, in words” value (patients with MPS III) is listed as “ineffective”.

From patent US20250255856A1, “THERAPEUTIC COMPOSITIONS WITH IMINO SUGARS FOR THE TREATMENT OF DISEASES WITH ACCUMULATION OF HEPARAN SULFATE” (priority 2022, published 2025)
